From ChEMBL document CHEMBL1201862, “PubChem BioAssay data set” (2004)
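Cultured in 96-well plates, cells were exposed to test compound for 48 hours across five concentrations. Abbreviation: GI50, concentration required for 50% inhibition of growth.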 Calls of active or inactive are those of the source. Cut-off read from the data, not from the text of the source: active = GI50 up to about 1.1 µM and inactive = higher.

What was measured:
Test in all cases: inhibition of tumour cell growth, NCI panel, 48 h
[1] = tested on: PC-3
[2] = tested on: A549
[3] = tested on: RPMI-8226
[4] = tested on: NCI/ADR-RES
[5] = tested on: HT-29
[6] = tested on: SNB-19
[7] = tested on: CCRF-CEM
[8] = tested on: MDA-N
[9] = tested on: SW-620
[10] = tested on: U-251
[11] = tested on: NCI-H23
[12] = tested on: M14
[13] = tested on: K562
[14] = tested on: NCI-H460
[15] = tested on: SNB-75
[16] = tested on: HL-60
[17] = tested on: ACHN
[18] = tested on: LOX IMVI
[19] = tested on: SK-MEL-2
[20] = tested on: MDA-MB-435

Row | SMILES | GI50 [1] | GI50 [2] | GI50 [3] | GI50 [4] | GI50 [5] | GI50 [6] | GI50 [7] | GI50 [8] | GI50 [9] | GI50 [10] | GI50 [11] | GI50 [12] | GI50 [13] | GI50 [14] | GI50 [15] | GI50 [16] | GI50 [17] | GI50 [18] | GI50 [19] | GI50 [20]
1 | O=C1C(O)=C(Cl)C(=O)c2c(O)ccc(O)c21 | > 100 µM (inactive) | > 100 µM (inactive) | > 100 µM (inactive) | > 100 µM (inactive) | > 100 µM (inactive) | > 100 µM (inactive) | > 100 µM (inactive) | > 100 µM (inactive) | > 100 µM (inactive) | > 100 µM (inactive) | > 100 µM (inactive) | > 100 µM (inactive) | > 100 µM (inactive) | > 100 µM (inactive) | > 100 µM (inactive) | > 100 µM (inactive) |  |  |  | 
2 | COc1cc([C@@H]2c3cc4c(cc3[C@@H](NCc3ccc(C#N)cc3)C3COC(=O)[C@@H]32)OCO4)cc(OC)c1O (stereo partly specified) |  | 0.0923 µM (active) | 0.993 µM (active) |  | 1.19 µM (inactive) | 0.621 µM (active) | 0.233 µM (active) |  | 0.766 µM (active) | 0.123 µM (active) | 0.317 µM (active) | 1.1 µM (active) | 1.54 µM (inactive) | 0.0344 µM (active) | 0.628 µM (active) | 0.116 µM (active) | 0.272 µM (active) | 0.778 µM (active) | 3.27 µM (inactive) | 
3 | NC(=O)C(=O)CC(=O)c1ccccc1NC1=CC(=O)C(=O)c2ccccc21 |  | > 100 µM (inactive) | > 40.6 µM (inactive) |  | > 100 µM (inactive) | > 58.2 µM (inactive) | 33.9 µM (inactive) |  | 43.8 µM (inactive) | > 70 µM (inactive) | 31.2 µM (inactive) | 46.6 µM (inactive) | 47 µM (inactive) | 98.6 µM (inactive) | > 88.3 µM (inactive) | 22.6 µM (inactive) | > 87.9 µM (inactive) | 14 µM (inactive) | 65.8 µM (inactive) | 
4 | COc1ccc(OC)c(-c2cc(=O)c3c(OC)c(OC)c(OC)c(OC)c3o2)c1 |  | 28.5 µM (inactive) | 21.5 µM (inactive) | 22.8 µM (inactive) | 33.6 µM (inactive) | 34.4 µM (inactive) | 13.4 µM (inactive) | 35.9 µM (inactive) | 33 µM (inactive) | 28.4 µM (inactive) | 30.1 µM (inactive) | 36.1 µM (inactive) | 22.2 µM (inactive) | 25.4 µM (inactive) | 46.8 µM (inactive) | 14.2 µM (inactive) | 20.7 µM (inactive) | 25.6 µM (inactive) | 20 µM (inactive) | 28 µM (inactive)
5 | Cc1cc(C)nc(NC(P(=O)(O)O)P(=O)(O)O)n1 | > 100 µM (inactive) | > 100 µM (inactive) |  | > 100 µM (inactive) | > 100 µM (inactive) | > 100 µM (inactive) |  | > 100 µM (inactive) |  |  | > 100 µM (inactive) | > 100 µM (inactive) |  | > 100 µM (inactive) |  |  | > 100 µM (inactive) | > 100 µM (inactive) |  | 
6 | Fc1ccc(C2SCc3nc4ccccc4n32)cc1 (stereo unspecified) |  | 45.3 µM (inactive) | 26.4 µM (inactive) |  | 47.9 µM (inactive) | 6.1 µM (inactive) | 42.1 µM (inactive) |  | 74.6 µM (inactive) | 51.3 µM (inactive) | 28.9 µM (inactive) | 43.3 µM (inactive) | 31.3 µM (inactive) | 34.4 µM (inactive) | 3.1 µM (inactive) | 22.3 µM (inactive) | 34.8 µM (inactive) | 49.2 µM (inactive) | 39.6 µM (inactive) | 
7 | COc1ccc(OC)c(NC(=O)CCC/C(CC(=O)c2ccc(O)c(OC)c2)=N\Nc2nnc(C)n2N)c1 |  | > 100 µM (inactive) | > 100 µM (inactive) |  | > 100 µM (inactive) | > 100 µM (inactive) | > 100 µM (inactive) |  | > 100 µM (inactive) | > 100 µM (inactive) | > 100 µM (inactive) | > 100 µM (inactive) | 32.4 µM (inactive) | > 100 µM (inactive) | 37.9 µM (inactive) | 90.2 µM (inactive) | > 100 µM (inactive) | > 100 µM (inactive) | > 100 µM (inactive) | 
8 | Cc1cccc(C)c1N1C(=O)C(=O)C(c2nc3ccccc3s2)/C(=N/c2cccc3c(=O)[nH][nH]c(=O)c23)C1=O (stereo unspecified) |  | > 100 µM (inactive) | > 100 µM (inactive) |  | > 100 µM (inactive) | > 100 µM (inactive) | 45.7 µM (inactive) |  | > 100 µM (inactive) | 83 µM (inactive) | > 100 µM (inactive) | > 100 µM (inactive) | 98.4 µM (inactive) | > 100 µM (inactive) | 81.8 µM (inactive) | 71.3 µM (inactive) | > 100 µM (inactive) | > 100 µM (inactive) | > 100 µM (inactive) | 
9 | O=S(=O)(C1=CC(S(=O)(=O)c2ccccc2)COC1)c1ccccc1 (stereo unspecified) |  | > 100 µM (inactive) | > 100 µM (inactive) |  | > 100 µM (inactive) | > 100 µM (inactive) | > 100 µM (inactive) |  | > 100 µM (inactive) | > 100 µM (inactive) | > 100 µM (inactive) | > 100 µM (inactive) | > 100 µM (inactive) | > 100 µM (inactive) | > 100 µM (inactive) | > 100 µM (inactive) | > 100 µM (inactive) | > 100 µM (inactive) | > 100 µM (inactive) | 
10 | CC(=O)OC1=C2CC[C@@H]3C(CC[C@@]4(C)C3CC[C@@H]4OC(C)=O)[C@@]2(C)CC(C#N)C1=O (stereo partly specified) |  | 30.8 µM (inactive) | 12 µM (inactive) |  | 26.5 µM (inactive) | 25.2 µM (inactive) | 20.2 µM (inactive) |  | 35.7 µM (inactive) | 27.4 µM (inactive) | 27.9 µM (inactive) | 25.1 µM (inactive) | 22.6 µM (inactive) | 24.4 µM (inactive) | 14.5 µM (inactive) | 16 µM (inactive) | 20.8 µM (inactive) | 16.8 µM (inactive) | 4.32 µM (inactive) | 
11 | CCOCc1cc(=O)c2cc3c(cc2o1)OC(C)(C)CC3 |  | > 100 µM (inactive) | 91.4 µM (inactive) |  | > 100 µM (inactive) | > 100 µM (inactive) | > 100 µM (inactive) |  | > 100 µM (inactive) | > 100 µM (inactive) | > 100 µM (inactive) | > 100 µM (inactive) | 97.5 µM (inactive) | > 100 µM (inactive) | > 100 µM (inactive) | 61.2 µM (inactive) | > 100 µM (inactive) | > 100 µM (inactive) | > 100 µM (inactive) | 
12 | COc1ccc(NC(=O)CC(=O)NN2C(=O)/C(=C/c3ccc(N(CCC#N)CCC#N)cc3C)N=C2/C=C\c2ccccc2)cc1 |  | > 100 µM (inactive) | > 100 µM (inactive) |  | > 100 µM (inactive) | > 100 µM (inactive) | > 100 µM (inactive) |  | > 100 µM (inactive) | > 100 µM (inactive) | > 100 µM (inactive) | > 100 µM (inactive) | > 100 µM (inactive) | > 100 µM (inactive) | 59.3 µM (inactive) | > 100 µM (inactive) | > 100 µM (inactive) | > 100 µM (inactive) | > 100 µM (inactive) | 
13 | CN(C)C1(N(C)C)Oc2c(c(=O)n(C)c(=O)n2C)C(c2ccccc2Br)C1(F)F (stereo unspecified) | > 100 µM (inactive) | > 100 µM (inactive) | > 100 µM (inactive) | > 100 µM (inactive) |  | > 100 µM (inactive) | > 100 µM (inactive) |  | > 100 µM (inactive) | > 100 µM (inactive) | > 100 µM (inactive) | > 100 µM (inactive) | > 100 µM (inactive) | > 100 µM (inactive) | > 100 µM (inactive) |  | > 100 µM (inactive) | > 100 µM (inactive) | > 100 µM (inactive) | > 100 µM (inactive)
14 | CCc1cc(Cc2cc(CC)c(NC(=O)C(=O)Cc3ccccn3)c(CC)c2Cl)c(Cl)c(CC)c1NC(=O)C(=O)Cc1ccccn1 |  | > 100 µM (inactive) | > 100 µM (inactive) |  | 70 µM (inactive) | > 100 µM (inactive) | > 100 µM (inactive) |  | 15.7 µM (inactive) | 19.4 µM (inactive) | > 100 µM (inactive) | 75.2 µM (inactive) | > 100 µM (inactive) | > 100 µM (inactive) | > 100 µM (inactive) | > 100 µM (inactive) | > 100 µM (inactive) | 41.8 µM (inactive) | > 100 µM (inactive) | 
15 | Oc1cc(-c2cccs2)nc2cc3c(cc12)OCO3 |  | 4.9 µM (inactive) | 6.32 µM (inactive) |  | 13.6 µM (inactive) | 10.4 µM (inactive) | 3.66 µM (inactive) |  | 3.03 µM (inactive) | 7.43 µM (inactive) | 3.78 µM (inactive) | 2.55 µM (inactive) | 2.42 µM (inactive) | 3.24 µM (inactive) | 1.41 µM (inactive) | 4.37 µM (inactive) | 7.31 µM (inactive) | 4.92 µM (inactive) | 4.99 µM (inactive) | 
16 | O=[N+]([O-])c1ccc(Cl)c(C2CC(c3cccc4ccccc34)=Nc3ccccc3[S+]2[O-])c1 (stereo unspecified) |  | 20 µM (inactive) | 2.21 µM (inactive) |  | 10.9 µM (inactive) | 29 µM (inactive) | 2.4 µM (inactive) |  | 7.85 µM (inactive) | 13.1 µM (inactive) | 8.75 µM (inactive) | 17.7 µM (inactive) | 3.97 µM (inactive) | 19.4 µM (inactive) | 5.86 µM (inactive) | 4.89 µM (inactive) | 18.5 µM (inactive) | 15.4 µM (inactive) | 15.1 µM (inactive) | 
17 | CCSc1nc2sc(C)c(C)c2c(=O)n1-c1ccc(C(=O)O)cc1 |  | 65.3 µM (inactive) | 34.1 µM (inactive) |  | 61 µM (inactive) | 31.1 µM (inactive) | 52.5 µM (inactive) |  | > 100 µM (inactive) | 55.5 µM (inactive) | 38.3 µM (inactive) | > 100 µM (inactive) | 55.5 µM (inactive) | 60.1 µM (inactive) | 13.6 µM (inactive) | 35.3 µM (inactive) | 79.6 µM (inactive) | 56.2 µM (inactive) | > 100 µM (inactive) | 
